Experiments:
Format in all cases: physicochemical
[1] = High-humidity test, related substances by HPLC; conditions: 90%RH±5%RH; for Impurity content RRT0.55 / Impurity content RRT0.66 / Impurity content RRT0.71 / Impurity content RRT0.94 / Impurity content RRT1.02 / Impurity content RRT1.06 / Impurity content RRT1.08 / Impurity content RRT1.15 / Total impurities: open
Text: An investigation method for the high-humidity test can be seen in Table 12 below.
Results of related substances in each crystal form under the high-humidity condition (90%RH±5%RH) can be seen in Table 16.
HPLC detection results of related substances under the high-humidity condition can be seen as follows: Table 16

[2] = Flowability test (angle of repose)
Method: A flowability determination method was as follows: an angle of repose was determined by using a device composed of 2 to 3 funnels connected in series in a staggered manner, and drug powder was slowly and uniformly passed through the funnels onto a stationary base with a diameter d, so as to form a symmetric powder pile with a single layer of powder at the bottom. During the formation of the powder pile, a height of the funnels was maintained within 2-4 cm from a top of the powder pile, a height h of the cone was determined, and the angle of repose was calculated as tanθ=h/(d/2).

[3] = Accelerated test, related substances by HPLC; conditions: 40°C±2°C, 75%RH±5%RH; for Impurity content RRT0.55 / Impurity content RRT0.66 / Impurity content RRT0.71 / Impurity content RRT0.94 / Impurity content RRT1.02 / Impurity content RRT1.06 / Impurity content RRT1.08 / Impurity content RRT1.15 / Total impurities: open
Method: An investigation method for the accelerated test can be seen in Table 14 below.
Change results of related substances in each crystal form under the accelerated condition (40°C±2°C, 75%RH±5%RH) can be seen in Table 18.
HPLC detection results of related substances under the accelerated condition can be seen as follows: Table 18

[4] = Light exposure test, related substances by HPLC
Text: An investigation method for the light exposure test can be seen in Table 13 below.
Results of related substances in each crystal form under the light exposure condition (4500lx±500lx) can be seen in Table 17.
HPLC detection results of related substances under the light exposure condition can be seen as follows: Table 17

[5] = Dynamic vapor sorption (DVS) hygroscopicity
Method: Dynamic vapor sorption (DVS) was used to investigate hygroscopicities of an active pharmaceutical ingredient in different crystal forms.
Determination method: • instrument: dynamic vapor sorption analyzer; temperature: 25°C; protective gas and flow rate: N2, 200 mL/min; • dm/dt: 0.002%/min; RH range: 0%RH-100%RH; cycle: 1 full cycle.

## C[C@@H](Nc1ccn2ncc(C3=NOC(C)(C)N3)c2n1)c1cc(F)cc(F)c1F [crystal form E]
[1]; 32 days
  Increase of impurity RRT1.02 content: no essential changes
  Increase of impurity RRT1.08 content: 0.04%
  Increase of total impurities: 0.05%
  Impurity content RRT0.55: 0.04%
  Impurity content RRT0.66: 0.22%
  Impurity content RRT0.71: 0.15%
  Impurity content RRT0.94: 0.05%
  Impurity content RRT1.02: 0.19%
  Impurity content RRT1.06: 0.04%
  Impurity content RRT1.08: 0.21%
  Impurity content RRT1.15: 0.04%
  Total impurities: 0.94%
[1]; 0 day
  Impurity content RRT0.55: 0.04%
  Impurity content RRT0.66: 0.21%
  Impurity content RRT0.71: 0.14%
  Impurity content RRT0.94: 0.03%
  Impurity content RRT1.02: 0.21%
  Impurity content RRT1.06: 0.07%
  Impurity content RRT1.08: 0.17%
  Impurity content RRT1.15: 0.03%
  Total impurities: 0.89%
[1]; 5 days
  Impurity content RRT0.55: 0.03%
  Impurity content RRT0.66: 0.21%
  Impurity content RRT0.71: 0.15%
  Impurity content RRT0.94: 0.03%
  Impurity content RRT1.02: 0.21%
  Impurity content RRT1.06: 0.05%
  Impurity content RRT1.08: 0.18%
  Impurity content RRT1.15: 0.03%
  Total impurities: 0.89%
[1]; 11 days
  Impurity content RRT0.55: 0.04%
  Impurity content RRT0.66: 0.21%
  Impurity content RRT0.71: 0.14%
  Impurity content RRT0.94: 0.02%
  Impurity content RRT1.02: 0.20%
  Impurity content RRT1.06: 0.05%
  Impurity content RRT1.08: 0.21%
  Impurity content RRT1.15: 0.03%
  Total impurities: 0.89%
[2]
  angle of repose: 37.9 °
[3]; 32 days
  Increase of impurity RRT1.08 content: 0.03%
  Impurity content RRT0.55: 0.04%
  Impurity content RRT0.66: 0.21%
  Impurity content RRT0.71: 0.16%
  Impurity content RRT0.94: 0.04%
  Impurity content RRT1.02: 0.20%
  Impurity content RRT1.06: 0.04%
  Impurity content RRT1.08: 0.20%
  Impurity content RRT1.15: 0.05%
  Total impurities: 0.95%
[3]; 0 day
  Impurity content RRT0.55: 0.04%
  Impurity content RRT0.66: 0.21%
  Impurity content RRT0.71: 0.14%
  Impurity content RRT0.94: 0.03%
  Impurity content RRT1.02: 0.21%
  Impurity content RRT1.06: 0.07%
  Impurity content RRT1.08: 0.17%
  Impurity content RRT1.15: 0.03%
  Total impurities: 0.89%
[3]; 5 days
  Impurity content RRT0.55: 0.04%
  Impurity content RRT0.66: 0.21%
  Impurity content RRT0.71: 0.15%
  Impurity content RRT0.94: 0.03%
  Impurity content RRT1.02: 0.21%
  Impurity content RRT1.06: 0.05%
  Impurity content RRT1.08: 0.18%
  Impurity content RRT1.15: 0.03%
  Total impurities: 0.89%
[3]; 11 days
  Impurity content RRT0.55: 0.04%
  Impurity content RRT0.66: 0.21%
  Impurity content RRT0.71: 0.15%
  Impurity content RRT0.94: 0.02%
  Impurity content RRT1.02: 0.21%
  Impurity content RRT1.06: 0.05%
  Impurity content RRT1.08: 0.21%
  Impurity content RRT1.15: 0.03%
  Total impurities: 0.94%
[4]; 4500 lx±500 lx, 32 days
  Increase of impurity RRT0.66 content: 0.04%
  Increase of impurity RRT0.71 content: not increased
  Increase of impurity RRT1.02 content: not increased
  Increase of impurity RRT1.08 content: 0.08%
  Increase of total impurities: 0.13%
[4]; 4500lx±500lx, open, 0 day
  Impurity content RRT0.55: 0.04%
  Impurity content RRT0.66: 0.21%
  Impurity content RRT0.71: 0.14%
  Impurity content RRT0.94: 0.03%
  Impurity content RRT1.02: 0.21%
  Impurity content RRT1.06: 0.07%
  Impurity content RRT1.08: 0.17%
  Impurity content RRT1.15: 0.03%
  Total impurities: 0.89%
[4]; 4500lx±500lx, open, 5 days
  Impurity content RRT0.55: 0.03%
  Impurity content RRT0.66: 0.22%
  Impurity content RRT0.71: 0.14%
  Impurity content RRT0.94: 0.02%
  Impurity content RRT1.02: 0.22%
  Impurity content RRT1.06: 0.05%
  Impurity content RRT1.08: 0.20%
  Impurity content RRT1.15: 0.04%
  Total impurities: 0.92%
[4]; 4500lx±500lx, open, 11 days
  Impurity content RRT0.55: 0.04%
  Impurity content RRT0.66: 0.22%
  Impurity content RRT0.71: 0.14%
  Impurity content RRT0.92: 0.03%
  Impurity content RRT0.94: 0.03%
  Impurity content RRT1.02: 0.20%
  Impurity content RRT1.06: 0.04%
  Impurity content RRT1.08: 0.24%
  Impurity content RRT1.15: 0.03%
  Total impurities: 0.98%
[4]; 4500lx±500lx, open, 32 days
  Impurity content RRT0.55: 0.03%
  Impurity content RRT0.66: 0.25%
  Impurity content RRT0.71: 0.13%
  Impurity content RRT0.94: 0.08%
  Impurity content RRT1.02: 0.20%
  Impurity content RRT1.06: 0.04%
  Impurity content RRT1.08: 0.25%
  Impurity content RRT1.15: 0.04%
  Total impurities: 1.02%
[5]
  Hygroscopicity (conclusion): had hygroscopicity
[5]; humidity 20% or less
  DVS weight loss: up to 3%
[5]; humidity increased from 0% to 30%
  DVS weight loss: approximately 2%
[5]; humidity increased from 90% to 100%
  DVS weight gain: approximately 4%
[5]; humidity reduced from 100% to 90%
  DVS weight loss: approximately 2%

Reference: patent EP4813989A1, “CRYSTAL, PHARMACEUTICAL COMPOSITION, PREPARATION METHOD THEREFOR, AND USE THEREOF” (TYK Medicines, Inc., priority 2023, dated 2025)
